How the values were obtained:
[1] = mn = molality of the nth substance listed, in mol/kg; conditions: 101 kPa, Liquid; for viscosity: Falling or rolling sphere viscometry; for speed of sound: Frequency=3 MHz, Single path-length method; for mass density: Vibrating tube method
[2] = 101 kPa, Liquid, Falling or rolling sphere viscometry

NCC(=O)O [2-aminoacetic acid] + O
[1], m1 = 0.06
Conditions	mass density [kg/m3]	speed of sound [m/s]	viscosity [mPa·s]
293.15 K	1000.19	1485.8	1.012
298.15 K	999.024	1499.6	0.908
303.15 K	997.613	1511.8	0.811
308.15 K	995.985	1522.4	0.733
313.15 K	994.125	1531.4	0.666

O [water]
[2]
Conditions	viscosity [mPa·s]
293.15 K	1.005
298.15 K	0.894
303.15 K	0.801
308.15 K	0.723
313.15 K	0.656

O [water] + C[n+]1ccn(CCCCCn2cc[n+](C)c2)c1.[Br-].[Br-]
[1], m2 = 0
Conditions	speed of sound [m/s]	viscosity [mPa·s]
293.15 K	–	1.005
298.15 K	–	0.894
303.15 K	–	0.801
308.15 K	–	0.723
313.15 K	1529.2	0.656

O [water] + C[n+]1ccn(CCCCn2cc[n+](C)c2)c1.[Br-].[Br-]
[1], m2 = 0
Conditions	speed of sound [m/s]	viscosity [mPa·s]
293.15 K	–	1.005
298.15 K	–	0.894
303.15 K	–	0.801
308.15 K	–	0.723
313.15 K	1529.2	0.656

O [water] + C[n+]1ccn(CCCn2cc[n+](C)c2)c1.[Br-].[Br-]
[1], m2 = 0
Conditions	speed of sound [m/s]	viscosity [mPa·s]
293.15 K	–	1.005
298.15 K	–	0.894
303.15 K	–	0.801
308.15 K	–	0.723
313.15 K	1529.2	0.656
